Molecular target: recombinant human AMCase (Homo sapiens, UniProt Q9BZP6)
Experiment: Human AMCase Activity Assay
Type: biochemical
Details: recombinant hAMCase, 4-methylumbelliferyl B-D-N,N′-diacetylchitobioside substrate, citrate buffer pH 5.2, 37° C., 60 minutes
Procedure: Human AMCase Activity Assay
The assay was run in the 96-well plate format, each reaction in the total volume of 100 μL. 4-Methylumbelliferyl B-D-N,N′-diacetylchitobioside hydrate was used as a substrate for the enzyme. Upon hydrolysis by AMCase, the substrate releases 4-methylumbelliferyl (4MU) that, when ionized in basic pH, emits fluorescence at 460 nm.
Briefly, 40 μL of a substrate was added to each well, followed by 10 μL of compound dilution and 50 μL of hAMCase recombinant enzyme solution. […] The fluorescence of the reaction product was measured in Perkin Elmer Envision fluorescent plate reader at an excitation wavelength of 355 nm.

Chain of recombinant human AMCase (Q9BZP6 22-476): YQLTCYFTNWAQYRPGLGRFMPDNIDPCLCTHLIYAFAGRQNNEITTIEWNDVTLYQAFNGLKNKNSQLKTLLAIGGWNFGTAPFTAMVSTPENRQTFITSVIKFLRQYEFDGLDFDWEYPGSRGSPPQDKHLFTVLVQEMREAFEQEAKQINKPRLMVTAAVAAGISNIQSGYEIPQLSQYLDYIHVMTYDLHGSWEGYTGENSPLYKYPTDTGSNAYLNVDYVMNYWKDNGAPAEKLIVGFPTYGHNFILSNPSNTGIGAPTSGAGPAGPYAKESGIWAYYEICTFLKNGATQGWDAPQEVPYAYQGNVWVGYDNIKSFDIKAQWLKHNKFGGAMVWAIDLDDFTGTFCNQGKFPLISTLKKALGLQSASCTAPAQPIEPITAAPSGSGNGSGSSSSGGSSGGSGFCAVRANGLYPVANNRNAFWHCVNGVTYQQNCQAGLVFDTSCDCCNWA

SMILES: Nc1n[nH]c(N2CCC(N(CCc3ccc(Br)cc3)Cc3ccc(S(N)(=O)=O)cc3)CC2)n1 [Example 15, 4-(((1-(3-amino-1H-1,2,4-triazol-5-yl)piperidin-4-yl)(4-bromophenethyl)amino)-methyl)benzenesulfonamide]
- IC50: 1 to 10 nM

SMILES: CS(=O)(=O)NC(=O)c1ccc(CN(CCc2ccc(Cl)cc2)C2CCN(c3nc(N)n[nH]3)CC2)cc1 [Example 39, 4-(((1-(3-amino-1H-1,2,4-triazol-5-yl)piperidin-4-yl)(4-chlorophenethyl)-amino)methyl)-N-(methylsulfonyl)benzamide]
- IC50: 1 to 10 nM

SMILES: CC(=O)NS(=O)(=O)c1ccc(CN(CCc2ccc(Br)cc2)C2CCN(c3nc(N)n[nH]3)CC2)cc1 [Example 16, N-((4-(((1-(3-amino-1H-1,2,4-triazol-5-yl)piperidin-4-yl)(4-bromophenethyl)-amino)methyl)phenyl)sulfonyl)acetamide]
- IC50: 1 to 10 nM

SMILES: CC(C)C(=O)NS(=O)(=O)c1ccc(CN(CCc2ccc(Br)cc2)C2CCN(c3nc(N)n[nH]3)CC2)cc1 [Example 17, N-((4-(((1-(3-amino-1H-1,2,4-triazol-5-yl)piperidin-4-yl)(4-bromophenethyl)-amino)methyl)phenyl)sulfonyl)isobutyramide]
- IC50: 1 to 10 nM

SMILES: CS(=O)(=O)NCCCN(CCc1ccc(Br)cc1)C1CCN(c2nc(N)n[nH]2)CC1 [Example 23, N-(3-((1-(3-amino-1H-1,2,4-triazol-5-yl)piperidin-4-yl)(4-bromophenethyl)-amino)propyl)methanesulfonamide]
- IC50: 1 to 10 nM

SMILES: CC(=O)NS(=O)(=O)CCN(CCc1ccc(Cl)cc1)C1CCN(c2nc(N)n[nH]2)CC1 [Example 38, N-((2-((1-(3-amino-1H-1,2,4-triazol-5-yl)piperidin-4-yl)(4-chlorophenethyl)-amino)ethyl)sulfonyl)acetamide]
- IC50: 10 to 100 nM

SMILES: CS(=O)(=O)Nc1cccc(CN(CCc2ccc(Cl)cc2)C2CCN(c3nc(N)n[nH]3)CC2)c1 [Example 32, N-(3-(((1-(3-amino-1H-1,2,4-triazol-5-yl)piperidin-4-yl)(4-chlorophenethyl)-amino)methyl)phenyl)methanesulfonamide]
- IC50: 1 to 10 nM

SMILES: Nc1n[nH]c(N2CCC(N(CCc3ccc(Cl)cc3)CC3(C(=O)O)CC3)CC2)n1 [Example 30, 1-(((1-(3-amino-1H-1,2,4-triazol-5-yl)piperidin-4-yl)(4-chlorophenethyl)amino)-methyl)cyclopropanecarboxylic acid]
- IC50: 1000 to 10000 nM

SMILES: Nc1n[nH]c(N2CCC(N(CCc3ccc(Cl)cc3)Cc3cccc(-c4nnn[nH]4)c3)CC2)n1 [Example 36, N-(3-(1H-tetrazol-5-yl)benzyl)-1-(3-amino-1H-1,2,4-triazol-5-yl)-N-(4-chlorophenethyl)piperidin-4-amine]
- IC50: 1 to 10 nM

SMILES: Cc1cc(CN(CCc2ccc(Cl)cc2)C2CCN(c3nc(N)n[nH]3)CC2)ccc1C(=O)O [Example 5, 4-(((1-(3-amino-1H-1,2,4-triazol-5-yl)piperidin-4-yl)(4-chlorophenethyl)amino)-methyl)-2-methylbenzoic acid]
- IC50: 1 to 10 nM

SMILES: Nc1n[nH]c(N2CCC(N(CCc3ccc(Cl)cc3)Cc3cccc(S(=O)(=O)NCC(F)(F)F)c3)CC2)n1 [Example 19, 3-(((1-(3-amino-1H-1,2,4-triazol-5-yl)piperidin-4-yl)(4-chlorophenethyl)amino)-methyl)-N-(2,2,2-trifluoroethyl)benzenesulfonamide]
- IC50: 10 to 100 nM

SMILES: Nc1n[nH]c(N2CCC(N(CCc3ccc(Cl)cc3)Cc3ccc(F)c(C(=O)O)c3)CC2)n1 [Example 8, 5-(((1-(3-amino-1H-1,2,4-triazol-5-yl)piperidin-4-yl)(4-chlorophenethyl)amino)-methyl)-2-fluorobenzoic acid]
- IC50: 10 to 100 nM

SMILES: Nc1n[nH]c(N2CCC(N(CCc3ccc(Cl)cc3)CC(C(=O)O)c3ccc(Cl)cc3)CC2)n1 (stereo not drawn) [Example 29, 3-((1-(3-amino-1H-1,2,4-triazol-5-yl)piperidin-4-yl)(4-chlorophenethyl)amino)-2-(4-chlorophenyl)propanoic acid]
- IC50: 10 to 100 nM

SMILES: Nc1n[nH]c(N2CCC(N(CCc3ccc(Cl)cc3)CC(=O)Nc3ccccc3)CC2)n1 [Example 21, 2-((1-(3-amino-1H-1,2,4-triazol-5-yl)piperidin-4-yl)(4-chlorophenethyl)amino)-N-phenylacetamide]
- IC50: 100 to 1000 nM

SMILES: NC(=O)c1ccc(CN(CCc2ccc(Br)cc2)C2CCN(c3nc(N)n[nH]3)CC2)cc1 [Example 34, 4-(((1-(3-amino-1H-1,2,4-triazol-5-yl)piperidin-4-yl)(4-bromophenethyl)-amino)methyl)benzamide]
- IC50: 1 to 10 nM

SMILES: Nc1n[nH]c(N2CCC(N(CCNC(=O)c3ccccc3)CCc3ccc(Cl)cc3)CC2)n1 [Example 9, N-(2-((1-(3-amino-1H-1,2,4-triazol-5-yl)piperidin-4-yl)(4-chlorophenethyl)amino)-ethyl)benzamide]
- IC50: 10 to 100 nM

SMILES: CS(=O)(=O)Nc1ccccc1CN(CCc1ccc(Cl)cc1)C1CCN(c2nc(N)n[nH]2)CC1 [Example 31, N-(2-(((1-(3-amino-1H-1,2,4-triazol-5-yl)piperidin-4-yl)(4-chlorophenethyl)-amino)methyl)phenyl)methanesulfonamide]
- IC50: 10 to 100 nM

SMILES: Nc1n[nH]c(N2CCC(N(CCc3ccc(Cl)cc3)Cc3nnn[nH]3)CC2)n1 [Example 43, N-((1H-tetrazol-5-yl)methyl)-1-(3-amino-1H-1,2,4-triazol-5-yl)-N-(4-chlorophenethyl)piperidin-4-amine]
- IC50: 10 to 100 nM

SMILES: CC(=O)NS(=O)(=O)c1cccc(CN(CCc2ccc(Br)cc2)C2CCN(c3nc(N)n[nH]3)CC2)c1 [Example 18, N-((3-(((1-(3-amino-1H-1,2,4-triazol-5-yl)piperidin-4-yl)(4-bromophenethyl)-amino)methyl)phenyl)sulfonyl)acetamide]
- IC50: 1 to 10 nM

SMILES: Nc1n[nH]c(N2CCC(N(CCc3ccc(Br)cc3)Cc3ccc(C(=O)O)cc3)CC2)n1 [Example 4, 4-(((1-(3-amino-1H-1,2,4-triazol-5-yl)piperidin-4-yl)(4-bromophenethyl)-amino)methyl)benzoic acid]
- IC50: 1 to 10 nM

SMILES: Cc1ccc(CN(CCc2ccc(Cl)cc2)C2CCN(c3nc(N)n[nH]3)CC2)cc1C(=O)O [Example 6, 5-(((1-(3-amino-1H-1,2,4-triazol-5-yl)piperidin-4-yl)(4-chlorophenethyl)-amino)methyl)-2-methylbenzoic acid]
- IC50: 10 to 100 nM

SMILES: CS(=O)(=O)Nc1ccc(CN(CCc2ccc(Cl)cc2)C2CCN(c3nc(N)n[nH]3)CC2)cc1 [Example 33, N-(4-(((1-(3-amino-1H-1,2,4-triazol-5-yl)piperidin-4-yl)(4-chlorophenethyl)-amino)methyl)phenyl)methanesulfonamide]
- IC50: 1 to 10 nM

SMILES: Nc1n[nH]c(N2CCC(N(CCc3ccc(Br)cc3)Cc3cccc(C(=O)O)c3)CC2)n1 [Example 3, 3-(((1-(3-amino-1H-1,2,4-triazol-5-yl)piperidin-4-yl)(4-bromophenethyl)amino)-methyl)benzoic acid]
- IC50: 1 to 10 nM

SMILES: CC(C)NC(=O)CN(CCc1ccc(Cl)cc1)C1CCN(c2nc(N)n[nH]2)CC1 [Example 22, 2-((1-(3-amino-1H-1,2,4-triazol-5-yl)piperidin-4-yl)(4-chlorophenethyl)amino)-N-isopropylacetamide]
- IC50: 100 to 1000 nM

SMILES: Nc1n[nH]c(N2CCC(N(CCC(=O)O)CCc3ccc(Cl)cc3)CC2)n1 [Example 26, 3-((1-(3-amino-1H-1,2,4-triazol-5-yl)piperidin-4-yl)(4-chlorophenethyl)-amino)propanoic acid]
- IC50: 1000 to 10000 nM

SMILES: CS(=O)(=O)NC(=O)c1cccc(CN(CCc2ccc(Cl)cc2)C2CCN(c3nc(N)n[nH]3)CC2)c1 [Example 40, 3-(((1-(3-amino-1H-1,2,4-triazol-5-yl)piperidin-4-yl)(4-chlorophenethyl)amino)-methyl)-N-(methylsulfonyl)benzamide]
- IC50: 1 to 10 nM

SMILES: Nc1n[nH]c(N2CCC(N(CCCC(=O)O)CCc3ccc(Cl)cc3)CC2)n1 [Example 27, 4-((1-(3-amino-1H-1,2,4-triazol-5-yl)piperidin-4-yl)(4-chlorophenethyl)-amino)butanoic acid]
- IC50: 100 to 1000 nM

SMILES: CC(C)NC(=O)NCCN(CCc1ccc(Cl)cc1)C1CCN(c2nc(N)n[nH]2)CC1 [Example 12, 1-(2-((1-(3-amino-1H-1,2,4-triazol-5-yl)piperidin-4-yl)(4-chlorophenethyl)-amino)ethyl)-3-isopropylurea]
- IC50: 100 to 1000 nM

SMILES: Cc1ccc(S(=O)(=O)NCCCN(CCc2ccc(Br)cc2)C2CCN(c3nc(N)n[nH]3)CC2)cc1 [Example 24, N-(3-((1-(3-amino-1H-1,2,4-triazol-5-yl)piperidin-4-yl)(4-bromophenethyl)-amino)propyl)-4-methylbenzenesulfonamide]
- IC50: 1 to 10 nM

SMILES: CS(=O)(=O)NC(=O)c1cc(CN(CCc2ccc(Cl)cc2)C2CCN(c3nc(N)n[nH]3)CC2)ccc1Cl [Example 41, 5-(((1-(3-amino-1H-1,2,4-triazol-5-yl)piperidin-4-yl)(4-chlorophenethyl)amino)-methyl)-2-chloro-N-(methylsulfonyl)benzamide]
- IC50: 10 to 100 nM

SMILES: Nc1n[nH]c(N2CCC(N(CCc3ccc(Cl)cc3)C(CC(=O)O)c3ccc(Cl)cc3)CC2)n1 (stereo not drawn) [Example 28, 3-((1-(3-amino-1H-1,2,4-triazol-5-yl)piperidin-4-yl)(4-chlorophenethyl)amino)-3-(4-chlorophenyl)propanoic acid]
- IC50: 1000 to 10000 nM

SMILES: Nc1n[nH]c(N2CCC(N(CCNC(=O)C(F)(F)F)CCc3ccc(Cl)cc3)CC2)n1 [Example 14, N-(2-((1-(3-amino-1H-1,2,4-triazol-5-yl)piperidin-4-yl)(4-chlorophenethyl)-amino)ethyl)-2,2,2-trifluoroacetamide]
- IC50: 100 to 1000 nM

SMILES: CNC(=O)c1ccc(CN(CCc2ccc(Br)cc2)C2CCN(c3nc(N)n[nH]3)CC2)cc1 [Example 35, 4-(((1-(3-amino-1H-1,2,4-triazol-5-yl)piperidin-4-yl)(4-bromophenethyl)-amino)methyl)-N-methylbenzamide]
- IC50: 1 to 10 nM
